This test deals with T1, HLA A*0101 (Homo sapiens, UniProt P04439, A114D/A174V/A182V/D101N/D185E/E176A/E190D/L180R/Q94H/R68K/S129P/T187R/V100A/V91M/W191G).
T1 construct: Pure Protein, LLC (ran the assay)
Briefly: biochemical. Type of test: binding. To be noted: allele A0101; cell-free competition with fluorescently labeled control peptide, fluorescence polarization at 72 hours; read-out: IC50. For orientation: Fluorescence polarisation rises when a labelled molecule tumbles more slowly, as on binding a larger partner.

Peptide text beside a SMILES is read from it.

One may read the IC50 as the concentration at which inhibition is half-maximal. On to `CC(C)[C@H](NC(=O)[C@H](CO)NC(=O)[C@H](CS)NC(=O)[C@@H]1CCCN1C(=O)[C@H](CO)NC(=O)[C@H](Cc1c[nH]c2ccccc12)NC(=O)[C@H](CCC(=O)O)NC(=O)[C@@H](NC(=O)[C@@H](N)CO)[C@@H](C)O)C(=O)O` [Cluster 328_3D7] (H-STEWSPCSV-OH), for which the half-maximal inhibitory concentration (IC50) worked out at 3.18 µM.

As for `CC(C)C[C@H](NC(=O)[C@H](CCC(N)=O)NC(=O)[C@H](CC(=O)O)NC(=O)[C@H](CCCCN)NC(=O)[C@@H]1CCCN1C(=O)[C@H](CCCCN)NC(=O)[C@H](CC(=O)O)NC(=O)[C@H](C)NC(=O)[C@@H](N)CO)C(=O)N[C@@H](CC(=O)O)C(=O)O` [Cluster 350_CVX65] (H-SADKPKDQLD-OH), the IC50 was 8.97 µM.

(Values after paper PMC8217813, “Bridging Computational Vaccinology and Vaccine Development Through Systematic Identification, Characterization, and Downselection of Conserved and Variable Circumsporozoite Protein CD4 T Cell Epitopes From Diverse Plasmodium falciparum Strains” (Frontiers in Immunology, 2021).)
